As usually defined, the IC50 is the concentration that gives 50% inhibition. In general, Ki refers to the equilibrium dissociation constant of an inhibitor or competing ligand from its target.

The species entered for experiment [1] is Homo sapiens. The experiment in a line: Selectivity ratio of IC50 for human eNOS to IC50 for human nNOS.
Experiment [2] deals with Nitric oxide synthase 1 (Homo sapiens, UniProt P29475). The experiment in a line: Inhibition of human nNOS.
The species named for experiment [3] is Mus musculus. Description: Neuroprotective activity in amyotrophic lateral sclerosis mouse model expressing human SOD1 G93A mutant assessed as increase in life span relative to control. The class given is functional.
For experiment [4], the target named is Nitric oxide synthase, inducible (Homo sapiens, UniProt P35228). Description: Inhibition of human iNOS.
Chain of Nitric oxide synthase, inducible (P35228 whole entry): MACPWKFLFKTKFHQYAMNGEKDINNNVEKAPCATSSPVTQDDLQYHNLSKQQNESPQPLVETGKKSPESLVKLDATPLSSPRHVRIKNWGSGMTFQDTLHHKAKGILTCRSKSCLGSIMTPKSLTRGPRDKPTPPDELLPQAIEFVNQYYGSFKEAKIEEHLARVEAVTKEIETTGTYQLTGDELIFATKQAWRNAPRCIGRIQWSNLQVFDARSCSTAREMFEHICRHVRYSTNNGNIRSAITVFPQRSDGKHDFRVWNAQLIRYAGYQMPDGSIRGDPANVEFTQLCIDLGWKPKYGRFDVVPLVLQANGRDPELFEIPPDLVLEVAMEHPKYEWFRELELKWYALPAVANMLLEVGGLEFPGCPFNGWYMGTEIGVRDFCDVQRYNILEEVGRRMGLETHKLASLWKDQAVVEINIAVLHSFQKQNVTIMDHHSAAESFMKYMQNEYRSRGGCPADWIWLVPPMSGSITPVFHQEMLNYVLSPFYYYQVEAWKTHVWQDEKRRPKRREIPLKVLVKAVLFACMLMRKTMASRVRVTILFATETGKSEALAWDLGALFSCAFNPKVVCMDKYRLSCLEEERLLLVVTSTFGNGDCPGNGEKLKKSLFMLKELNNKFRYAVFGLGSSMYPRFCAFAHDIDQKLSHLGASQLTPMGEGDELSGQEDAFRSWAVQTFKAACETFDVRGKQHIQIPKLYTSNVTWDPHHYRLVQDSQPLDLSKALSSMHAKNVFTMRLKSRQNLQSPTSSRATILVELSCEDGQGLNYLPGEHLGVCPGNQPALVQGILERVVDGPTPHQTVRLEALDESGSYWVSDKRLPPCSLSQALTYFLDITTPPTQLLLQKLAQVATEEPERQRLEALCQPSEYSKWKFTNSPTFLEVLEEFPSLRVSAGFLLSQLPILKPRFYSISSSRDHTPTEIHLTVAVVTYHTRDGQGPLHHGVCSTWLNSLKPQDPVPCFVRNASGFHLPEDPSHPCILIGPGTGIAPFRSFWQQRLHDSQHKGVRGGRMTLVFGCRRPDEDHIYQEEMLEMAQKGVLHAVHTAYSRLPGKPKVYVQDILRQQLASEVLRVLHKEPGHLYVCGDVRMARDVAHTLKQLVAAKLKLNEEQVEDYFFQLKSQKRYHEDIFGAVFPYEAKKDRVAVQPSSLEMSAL
In experiment [5] the target is T1, Nitric oxide synthase 3 (Homo sapiens, UniProt P29474).
T1 sequence (P29474 whole entry): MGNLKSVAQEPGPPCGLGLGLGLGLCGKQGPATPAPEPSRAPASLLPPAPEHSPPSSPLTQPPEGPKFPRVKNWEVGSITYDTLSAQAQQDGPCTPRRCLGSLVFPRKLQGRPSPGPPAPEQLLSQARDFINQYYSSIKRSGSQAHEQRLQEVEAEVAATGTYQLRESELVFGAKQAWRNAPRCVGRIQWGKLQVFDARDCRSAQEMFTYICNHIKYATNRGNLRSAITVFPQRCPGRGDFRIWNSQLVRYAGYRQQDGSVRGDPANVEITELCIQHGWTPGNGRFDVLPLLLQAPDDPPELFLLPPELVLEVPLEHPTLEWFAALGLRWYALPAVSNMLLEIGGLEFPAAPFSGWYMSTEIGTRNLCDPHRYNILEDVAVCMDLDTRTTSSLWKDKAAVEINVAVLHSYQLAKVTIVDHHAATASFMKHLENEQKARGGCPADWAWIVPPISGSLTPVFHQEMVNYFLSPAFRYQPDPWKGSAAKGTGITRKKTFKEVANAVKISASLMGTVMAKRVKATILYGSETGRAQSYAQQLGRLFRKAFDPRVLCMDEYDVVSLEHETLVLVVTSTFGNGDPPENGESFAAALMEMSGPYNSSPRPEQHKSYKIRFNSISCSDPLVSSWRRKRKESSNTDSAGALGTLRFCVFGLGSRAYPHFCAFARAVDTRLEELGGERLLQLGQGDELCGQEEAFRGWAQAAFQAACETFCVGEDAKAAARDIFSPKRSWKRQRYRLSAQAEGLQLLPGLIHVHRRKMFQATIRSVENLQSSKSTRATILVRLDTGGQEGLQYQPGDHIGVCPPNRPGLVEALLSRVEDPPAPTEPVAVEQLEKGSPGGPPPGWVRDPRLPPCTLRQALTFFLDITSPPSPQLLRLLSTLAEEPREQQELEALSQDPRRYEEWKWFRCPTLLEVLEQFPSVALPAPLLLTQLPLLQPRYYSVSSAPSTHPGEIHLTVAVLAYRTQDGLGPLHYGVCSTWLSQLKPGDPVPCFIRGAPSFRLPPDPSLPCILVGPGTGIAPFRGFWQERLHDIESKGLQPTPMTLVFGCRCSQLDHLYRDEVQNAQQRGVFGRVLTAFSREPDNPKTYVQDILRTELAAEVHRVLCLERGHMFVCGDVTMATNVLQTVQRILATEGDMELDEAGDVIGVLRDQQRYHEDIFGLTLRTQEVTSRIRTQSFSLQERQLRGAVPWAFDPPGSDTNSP
The experiment in a line: Inhibition of human eNOS.

The nature of experiment [6]: Neuroprotective activity in rat Cortical neuron assessed as protection from glutamate-induced neurotoxicity treated after glutamate-challenge by lactate dehydrogenase assay. The note with it: cortical neurone. Type of experiment: functional.
The test system of experiment [7] is Homo sapiens. The experiment in a line: Neuroprotective activity in Parkinson disease patient assessed as reduction of L-DOPA-induced dyskinesia administered as infusion treated prior to L-DOPA-challenge relative to control. Type of experiment: functional. Further details: scale not given: the % may be the effect or the level left.
Experiment [8] can be described thus: Selectivity ratio of Ki for mouse iNOS to Ki for rat nNOS.
Experiment [9] is described as follows: Selectivity ratio of Ki for bovine eNOS to Ki for rat nNOS.
The target in experiment [10] is Nitric oxide synthase 1 (Rattus norvegicus, UniProt P29476).
Chain of Nitric oxide synthase 1 (Rattus norvegicus, UniProt P29476) (P29476 whole entry): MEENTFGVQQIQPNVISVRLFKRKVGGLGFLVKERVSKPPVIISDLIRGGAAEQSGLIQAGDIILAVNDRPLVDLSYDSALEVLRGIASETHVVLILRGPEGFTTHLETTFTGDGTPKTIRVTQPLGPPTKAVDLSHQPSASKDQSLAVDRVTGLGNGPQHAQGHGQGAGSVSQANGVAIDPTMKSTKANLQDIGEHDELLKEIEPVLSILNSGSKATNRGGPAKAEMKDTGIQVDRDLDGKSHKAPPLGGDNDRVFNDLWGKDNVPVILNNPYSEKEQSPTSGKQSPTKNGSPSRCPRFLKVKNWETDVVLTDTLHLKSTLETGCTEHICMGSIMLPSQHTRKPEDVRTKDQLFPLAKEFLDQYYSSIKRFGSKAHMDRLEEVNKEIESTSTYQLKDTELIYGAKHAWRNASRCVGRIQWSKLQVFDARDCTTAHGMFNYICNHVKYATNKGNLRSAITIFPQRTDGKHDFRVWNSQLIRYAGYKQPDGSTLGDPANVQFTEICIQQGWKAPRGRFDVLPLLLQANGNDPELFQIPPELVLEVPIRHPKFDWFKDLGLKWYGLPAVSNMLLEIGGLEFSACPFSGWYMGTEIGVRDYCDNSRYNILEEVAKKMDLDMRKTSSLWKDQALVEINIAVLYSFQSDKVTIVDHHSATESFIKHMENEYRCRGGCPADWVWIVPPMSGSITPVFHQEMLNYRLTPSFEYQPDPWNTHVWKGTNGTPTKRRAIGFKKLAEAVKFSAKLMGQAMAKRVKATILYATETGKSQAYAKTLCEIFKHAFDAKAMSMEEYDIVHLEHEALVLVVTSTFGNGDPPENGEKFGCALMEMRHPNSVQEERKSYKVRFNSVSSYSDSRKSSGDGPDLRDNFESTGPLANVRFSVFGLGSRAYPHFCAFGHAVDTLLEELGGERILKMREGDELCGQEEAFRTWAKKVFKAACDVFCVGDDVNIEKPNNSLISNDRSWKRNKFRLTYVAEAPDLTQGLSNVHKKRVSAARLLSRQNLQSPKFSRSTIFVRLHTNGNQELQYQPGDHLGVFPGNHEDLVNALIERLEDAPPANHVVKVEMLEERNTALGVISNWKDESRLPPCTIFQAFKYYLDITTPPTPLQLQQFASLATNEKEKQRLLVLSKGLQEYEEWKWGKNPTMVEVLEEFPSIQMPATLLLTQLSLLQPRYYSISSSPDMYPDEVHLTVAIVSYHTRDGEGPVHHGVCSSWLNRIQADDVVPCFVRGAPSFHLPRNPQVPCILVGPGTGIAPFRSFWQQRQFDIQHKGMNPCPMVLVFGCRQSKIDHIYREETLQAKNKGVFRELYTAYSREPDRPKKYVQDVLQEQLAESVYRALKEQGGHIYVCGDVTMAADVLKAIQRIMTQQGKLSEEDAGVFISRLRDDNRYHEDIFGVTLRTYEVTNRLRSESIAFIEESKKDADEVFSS
A short description of experiment [11]: Inhibition of bovine nNOS. Further details: species or system Bos taurus.
Experiment [12] deals with Canis familiaris. The experiment in a line: Antialzheimer activity in Beagle dog assessed as reduction in CSF amyloid beta level at 5 mg/kg, po after 9 hrs relative to control. Also on record: scale not given: the % may be the effect or the level left. The class given is functional, Canis lupus familiaris.
Experiment [13] concerns the target Microtubule-associated protein tau (Homo sapiens, UniProt P10636). Description: Inhibition of recombinant tau (unknown origin) aggregation.
For experiment [14], the species on record is Homo sapiens. Description: Selectivity ratio of IC50 for recombinant GluN2A/GluN2D receptor (unknown origin) to IC50 for GluN2C/GluN2D (unknown origin) receptor.
Experiment [15] is described as follows: Inhibition of NMDA receptor in mouse medium spiny neurons by whole cell patch clamp assay. In general terms: In patch-clamp work, channel activity is measured electrically.
The target in experiment [16] is L-type calcium channel (Mus musculus, UniProt Q01815+Q02789+Q99246+Q9JIS7). Description: Inhibition of Voltage-dependent L-type calcium channel in mouse medium spiny neurons by whole cell patch clamp assay.
For experiment [17], the species on record is Homo sapiens. Description: Selectivity ratio of IC50 for NTD-deleted GluN1/NTD-deleted GluN2D receptor (unknown origin) to IC50 for NTD-deleted GluN1/NTD-deleted GluN2A receptor (unknown origin).
Experiment [18] concerns the target Huntingtin (Homo sapiens, UniProt P42858). Description: Inhibition of HD exon 1 fusion protein with 51 glutamine residues (unknown origin) aggregation expressed in Escherichia coli SURE after 16 hrs by Western blotting analysis.

Non-standard residues stand in square brackets, D forms with d. Residues, ends and D or L forms follow the SMILES beside them. dArg(NO2) = N=C(NCCC[C@@H](N)C(=O)O)N[N+](=O)[O-] Some results are limits rather than exact numbers.

Chain of Nitric oxide synthase 1 (Homo sapiens, UniProt P29475) (P29475 whole entry): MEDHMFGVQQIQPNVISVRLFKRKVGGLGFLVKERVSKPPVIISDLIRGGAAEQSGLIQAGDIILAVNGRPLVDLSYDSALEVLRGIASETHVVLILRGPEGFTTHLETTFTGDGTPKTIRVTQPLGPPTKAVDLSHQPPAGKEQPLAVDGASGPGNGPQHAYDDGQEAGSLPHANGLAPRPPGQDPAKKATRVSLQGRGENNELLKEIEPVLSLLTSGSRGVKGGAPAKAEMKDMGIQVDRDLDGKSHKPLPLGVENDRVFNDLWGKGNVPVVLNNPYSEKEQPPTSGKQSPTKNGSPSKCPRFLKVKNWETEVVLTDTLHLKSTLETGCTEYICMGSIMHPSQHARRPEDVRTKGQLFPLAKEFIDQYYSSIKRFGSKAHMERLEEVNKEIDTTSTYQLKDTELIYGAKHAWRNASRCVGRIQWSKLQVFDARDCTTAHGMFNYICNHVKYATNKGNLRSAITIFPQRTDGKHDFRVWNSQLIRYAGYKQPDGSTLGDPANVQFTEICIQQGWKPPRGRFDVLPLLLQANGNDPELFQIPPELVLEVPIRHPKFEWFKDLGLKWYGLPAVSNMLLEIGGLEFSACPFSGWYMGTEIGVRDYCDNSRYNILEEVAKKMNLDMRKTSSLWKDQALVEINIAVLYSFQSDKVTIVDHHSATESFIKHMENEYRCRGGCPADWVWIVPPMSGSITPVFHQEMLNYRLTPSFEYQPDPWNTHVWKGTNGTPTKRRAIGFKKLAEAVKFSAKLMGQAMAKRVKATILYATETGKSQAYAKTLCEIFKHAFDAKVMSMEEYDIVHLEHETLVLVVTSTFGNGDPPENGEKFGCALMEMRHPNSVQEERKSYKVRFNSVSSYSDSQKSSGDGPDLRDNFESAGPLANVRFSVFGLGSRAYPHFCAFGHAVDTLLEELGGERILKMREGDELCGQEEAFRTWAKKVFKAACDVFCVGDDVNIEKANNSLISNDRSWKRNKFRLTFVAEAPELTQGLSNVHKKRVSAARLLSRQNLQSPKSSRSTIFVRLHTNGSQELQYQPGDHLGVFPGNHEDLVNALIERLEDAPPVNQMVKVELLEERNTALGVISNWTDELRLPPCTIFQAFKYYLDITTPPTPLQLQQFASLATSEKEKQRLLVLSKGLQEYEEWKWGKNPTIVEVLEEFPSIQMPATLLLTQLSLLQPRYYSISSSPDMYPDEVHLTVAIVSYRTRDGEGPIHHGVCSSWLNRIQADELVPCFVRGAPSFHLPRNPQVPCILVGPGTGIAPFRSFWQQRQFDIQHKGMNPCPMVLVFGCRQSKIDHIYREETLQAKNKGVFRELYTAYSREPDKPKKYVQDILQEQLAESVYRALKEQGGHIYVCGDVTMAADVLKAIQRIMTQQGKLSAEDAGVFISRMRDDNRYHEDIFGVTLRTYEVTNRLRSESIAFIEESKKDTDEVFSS
Chain of Microtubule-associated protein tau (P10636 whole entry): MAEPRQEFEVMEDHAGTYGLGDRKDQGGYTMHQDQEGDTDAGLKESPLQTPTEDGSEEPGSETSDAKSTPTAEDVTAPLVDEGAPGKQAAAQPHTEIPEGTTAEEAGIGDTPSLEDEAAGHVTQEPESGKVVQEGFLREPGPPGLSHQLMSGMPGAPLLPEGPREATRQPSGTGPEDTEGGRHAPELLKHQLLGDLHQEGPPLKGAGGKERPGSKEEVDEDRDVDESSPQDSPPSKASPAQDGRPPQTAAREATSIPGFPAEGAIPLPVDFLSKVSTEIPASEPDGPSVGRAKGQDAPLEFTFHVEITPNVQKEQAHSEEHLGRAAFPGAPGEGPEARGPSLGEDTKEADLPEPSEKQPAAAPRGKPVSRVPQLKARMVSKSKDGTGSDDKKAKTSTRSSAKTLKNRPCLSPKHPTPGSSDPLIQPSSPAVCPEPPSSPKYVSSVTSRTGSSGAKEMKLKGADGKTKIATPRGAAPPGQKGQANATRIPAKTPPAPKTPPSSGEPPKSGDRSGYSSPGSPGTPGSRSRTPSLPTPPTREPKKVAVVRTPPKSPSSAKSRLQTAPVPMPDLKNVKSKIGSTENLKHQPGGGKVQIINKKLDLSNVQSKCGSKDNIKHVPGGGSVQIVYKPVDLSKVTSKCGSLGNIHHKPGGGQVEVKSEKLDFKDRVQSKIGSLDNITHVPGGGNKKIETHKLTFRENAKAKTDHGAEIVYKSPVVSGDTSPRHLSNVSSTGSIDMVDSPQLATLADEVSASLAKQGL

For `CN(C)CCOc1ccc(-c2cccc(N)n2)c2c1CCCC2`, the Ratio IC50 in [1] stood at 50. The compound also registered an IC50 in experiment [2] of 70 nM.

On to `[O-][n+]1cccc(/C(Cl)=N/OC[C@H](O)CN2CCCCC2)c1` [ARIMOCLOMOL], for which the Activity in experiment [3] was 22%.

On to `NC(=Nc1ccc(CCNCCc2cccc(Cl)c2)cc1)c1cccs1`, for which the half-inhibitory concentration (IC50) in experiment [4] turned out to be 5000 nM; in experiment [2] it was 35 nM; in [5], 3500 nM.

On to `C[C@@H](CN1CCC(Cc2ccccc2)CC1)[C@@H](O)c1ccc(O)cc1`, for which the 50% inhibitory concentration (IC50) in [6] was 400 nM.

For the compound `CC(C(O)c1ccc(O)cc1)N1CCC(Cc2ccccc2)CC1` (stereo not given) [IFENPRODIL], the half-inhibitory concentration (IC50) in experiment [6] came to 3500 nM.

With `N=C(Nc1ccc(CCNCCc2cccc(Cl)c2)cc1)c1cccs1`, the Ratio IC50 in [1] worked out at 100.

For `C[C@@H]([C@@H](O)c1ccc(O)cc1)N1CCC(O)(c2ccccc2)CC1` [TRAXOPRODIL], the Activity in experiment [7] turned out to be 30%.

Regarding `COC(=O)[C@@H](CCCNC(=N)N[N+](=O)[O-])NC(=O)[C@H](N)Cc1ccccc1` (H-[dF]-[dArg(NO2)]-OMe), the Ratio Ki in [8] is 1800; in [9], 2.6. This compound came in with a Ki in [10] of 1900 nM.

On to `C=CNC(=N)NCCC[C@H](N)C(=O)O`, for which the values for the Ratio Ki in experiment [8] and in experiment [9] were 11 and 35, respectively. The same compound showed a Ki in [11] of 200 nM.

Take `C[C@@]1(c2cc(-c3cncnc3)c(F)cc2F)CCSC(N)=N1` [LY-2811376]: the Activity in [12] turned out to be 70%.

Take `N=C(NCCC[C@H](N)C(=O)O)N[N+](=O)[O-]` [NITROARGININE]: the results for the Ratio Ki in experiment [8] and in experiment [9] were 293 and 11, respectively.

On to `N/N=C(\N)NCCC[C@H](N)C(=O)O`, for which the values for the Ratio Ki in [8] and in experiment [9] were 10 and 8.3, respectively. The inhibitory constant (Ki) in [11] was found to be 300 nM.

As to `Cc1cc2nc3ccc(N(C)C)cc3[s+]c2cc1N` [TOLONIUM CHLORIDE], the Ki in experiment [13] came to 69 nM.

In the case of `Cc1ccc2[nH]c(=O)c(C3=NN(C(=O)CCC(=O)O)C(c4ccc(Br)cc4)C3)c(-c3ccccc3)c2c1` (stereo not given), the Ratio IC50 in experiment [14] is over 50.

Turning to `Cc1ccc2c(c1)c1c(n2CCc2ccc(C)nc2)CCN(C)C1` [LATREPIRDINE], the figures for the IC50 in [15] and in experiment [16] were 10000 nM and 50000 nM, respectively.

As for `O=C(O)c1cc2cc(Br)ccc2oc1=O`, in experiment [17], the Ratio IC50 was 23.

Regarding `CC(=O)CN1CCN(CCc2ccc(-c3cccc(N)n3)cc2)CC1`, the Ratio IC50 in experiment [1] was determined as 6. The same compound yielded an IC50 in experiment [2] of 140 nM.

In [18], `COC(=O)c1ccc(C(=O)Nc2nc3ccc(C(=O)Nc4ccccc4)cc3s2)cc1` displayed an IC50 of 1200 nM.

Values taken from ChEMBL document CHEMBL2331315, “Target- and mechanism-based therapeutics for neurodegenerative diseases: strength in numbers” (J Med Chem, 2013).
